Measured values from US20250057820A1, “AUTOTAXIN (ATX) INHIBITOR FOR THE TREATMENT OF PANCREATIC CANCER” (priority 2021, published 2025).

Columns and labels:
mPA6115-luc tumour cells = experiment: orthotopic mPA6115-luc mouse model of pancreatic cancer; type: in vivo; conditions: 10 mg/kg BID oral gavage, female C57BL/6 mice, FIG. 2
Method: This model is constituted by the implantation of mPA6115-luc cells originating from a spontaneous developed donor tumour in KPC mice into the pancreas of female wildtype C57BL/6 recipient mice.
Each mouse was inoculated into the subcapsular region of the pancreas with mPA6115-luc tumour cells (1×10^6) in 50 uL PBS with Matrigel (1:1). The date of tumour cell inoculation was denoted as day 0.
The randomization started 4 days after tumour cell inoculation based on the total flux (p/s, minimum flux>1E^6). 10 mice per group were assigned to treatment by BID oral gavage with vehicle (1% methylcellulose) or Compound 1 (10 mg/kg in 1% methylcellulose). Tumour growth and metastasis were imaged twice per week by bioluminescent imaging.

PANC-1 tumour cells [1] = conditions: for tumour growth inhibition: BALB/C nude mice, tumour weight at day 42
Method: The therapeutic efficacy of Compound 1 with or without gemcitabine was evaluated in the orthotopic PANC-1 mouse model of pancreatic cancer. This model is constituted by the implantation of PANC-1 tumor cells into the pancreas […] in BALB/C nude mice.
Each mouse was inoculated into the subcapsular region of the pancreas with PANC-1 tumour cells (3×10^6) in 50 uL PBS with Matrigel (1:1). The date of tumour cell inoculation was denoted as day 0. Randomization started 10 days after tumour cell inoculation based on body weight. 10 mice per group were assigned to treatment by oral gavage with vehicle (1% methylcellulose, BID), gemcitabine (25 mg/kg, Q4D), Compound 1 (10 mg/kg, BID), or Compound 1 (10 mg/kg, BID) and gemcitabine (25 mg/kg, Q4D). Tumor sizes were measured by weight after termination at day 42.

PANC-1 tumour cells [2] = experiment: subcutaneous PANC-1 xenograft mouse model of pancreatic cancer; type: in vivo; conditions: BALB/c Nude mice, subcutaneous PANC-1, FIG. 3
Method: The therapeutic efficacy of Compound 1 was evaluated in the subcutaneous PANC-1 mouse model of pancreatic cancer.
BALB/c Nude mice were inoculated subcutaneously in the right front flank region with PANC-1 tumour cells (5×10^6) in 0.1 ml of PBS. The date of tumour cell inoculation was denoted as day 0. The randomization started when the mean tumour size>100 mm^3. 10 mice were enrolled per study group. Tumour growth and body weights were measured twice per week.

pancreatic cancer = pancreatic cancer patients, standard treatment; cited from earlier work
RC416 tumour cells = experiment: orthotopic RC416 mouse model of pancreatic cancer (survival); type: in vivo; conditions: Compound 1 10 mg/kg BID p.o., galunisertib 50 mg/kg BID p.o., gemcitabine 75 mg/kg QW i.p.; max 28 days treatment; FIG. 5
Description: This model is constituted by the implantation of RC416 cells originating from a spontaneous developed donor tumour in KPC mice into the pancreas of female wildtype C57BL/6 recipient mice. The pathology and tumour microenvironment in this model closely resemble human pancreatic cancer and is characterized by high circulating ATX and TGF-β.
The day of tumour cell inoculation was denoted as day 0. Randomization started 7 days after tumor cell inoculation, based on body weight. 5 mice per group were assigned to treatment, with vehicle (1% methylcellulose, BID p.o.), Compound 1 (10 mg/kg, BID p.o.), galunisertib (50 mg/kg, BID p.o.), gemcitabine (75 mg/kg, QW i.p.), or the combinations of Compound 1 plus gemcitabine, Compound 1 plus galunisertib and gemcitabine, and galunisertib plus gemcitabine, Mice were treated for a maximum of 28 days and anti-tumour activity was measured by survival.

[3] = Compound 1 10 mg/kg BID, gemcitabine 25 mg/kg Q4D

Compound: C[C@H](NC(=O)CCc1nc2cccnc2n1Cc1ccc(OC(F)(F)F)cc1)c1ccc(Cl)cc1 [Compound 1, N—[(S)-1-(4-chloro-phenyl)-ethyl]-3-[3-(4-trifluoromethoxy-benzyl)-3H-imidazo[4,5-b]pyridin-2-yl]-propionamide]
- tumour outgrowth based on total bioluminescence (mPA6115-luc tumour cells): significantly reduced tumour outgrowth
- tumour growth inhibition (PANC-1 tumour cells [1]; [3]): 5%
- tumour outgrowth (PANC-1 tumour cells [2]): reduced tumour outgrowth

Compound: Nc1ccn([C@@H]2O[C@H](CO)[C@@H](O)C2(F)F)c(=O)n1 [gemcitabine]
- average median overall survival (pancreatic cancer): 6 months
- response rate (pancreatic cancer): 5-10%
- mice died or sacrificed for reaching humane endpoints (mortality) (PANC-1 tumour cells [1]; 10 mice per group, Compound 1 10 mg/kg BID, gemcitabine 25 mg/kg Q4D): 5 mice
- tumour growth inhibition (PANC-1 tumour cells [1]; [3]): 41%
- Number of Mice on Day 42 (PANC-1 tumour cells [1]; BALB/C nude, mouse, in vivo, 42 day): 5
- Pancreas Size (mg) on Day 42 (PANC-1 tumour cells [1]; Day 42): 549 + 44 mg
- survival (RC416 tumour cells): limited survival benefit
